Values joined by “and” are separate entries in the source; they are usually repeats but may differ in a detail not shown here. Equal entries are not always repeated.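 How tested: cells in 96-well plates exposed to compound for 48 hours at five concentrations. Abbreviation: GI50, concentration required for 50% inhibition of growth. TGI: total growth inhibition.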
What was measured:
Test in all cases: NCI anticancer screen, dose series, 48 h
[1] = system: BT-549 breast
[2] = system: COLO 205 colon
[3] = system: DU-145 prostate
[4] = system: SNB-19 CNS
[5] = system: CAKI-1 renal
[6] = system: SR leukemia
[7] = system: CCRF-CEM leukemia
[8] = system: SF-268 CNS
[9] = system: OVCAR-8 ovarian
[10] = system: HS 578T breast

Compound	GI50 [1]	TGI [1]	GI50 [2]	TGI [2]	GI50 [3]	TGI [3]	GI50 [4]	TGI [4]	GI50 [5]	TGI [5]	GI50 [6]	TGI [6]	GI50 [7]	TGI [7]	GI50 [8]	TGI [8]	GI50 [9]	TGI [9]	GI50 [10]	TGI [10]
Cc1nc(N)sc1C(=O)Nc1cc(C(=O)NCCCN(C)C)n(C)c1	76.7 µM	> 100 µM	> 100 µM	> 100 µM	67.3 µM	> 100 µM	> 100 µM	> 100 µM	> 100 µM	> 100 µM	> 100 µM	> 100 µM	> 100 µM	> 100 µM	> 100 µM	> 100 µM	> 100 µM	> 100 µM	–	–
O=C(Oc1ccccc1Cl)c1ccccc1Nc1ccnc(C(F)(F)F)c1	0.635 µM	20.6 µM	–	–	3.42 µM	13.3 µM	7.43 µM	> 100 µM	0.599 µM	1.76 µM	0.0282 µM	> 100 µM	0.0324 µM	–	0.71 µM	–	0.366 µM	14.3 µM	20 µM	74.1 µM
O=[N+]([O-])c1ccc2ncccc2c1Cl	3.29 µM	9.57 µM	–	–	3.4 µM	10.2 µM	4.2 µM	23.4 µM	1.69 µM	3.45 µM	0.308 µM	4.12 µM	2.54 µM	29.8 µM	3.89 µM	13.9 µM	2.96 µM	8.69 µM	7.69 µM	> 100 µM
COC1=Nc2ccccc2S(=O)(=O)C=C1	0.678 µM	19.1 µM	0.695 µM	4.01 µM	–	31.4 µM	–	56.7 µM	0.256 µM	–	–	–	2.85 µM	> 100 µM	–	48.6 µM	–	19.5 µM	–	53.4 µM
COc1ccc(-c2cc(=O)c3c(O)cc(C)cc3o2)cc1OC	–	> 100 µM	–	> 100 µM	–	> 100 µM	–	> 100 µM	–	–	–	> 100 µM	–	> 100 µM	–	> 100 µM	–	–	–	> 100 µM
CC/C(C)=C1\OC(=O)C(C)C(O)C(Cc2cccnc2)NC(=O)C(NC(=O)c2ncccc2O)C(C)OC1=O (stereo not drawn)	–	> 100 µM	–	> 100 µM	–	> 100 µM	–	> 100 µM	–	> 100 µM	–	> 100 µM	–	–	–	> 100 µM	–	> 100 µM	–	> 100 µM
COc1cnc2c(c1)C(=O)c1c-2n(CCCN2CCCC2)c(=O)c2cc(F)ccc12	0.85 µM	6.43 µM	0.109 µM	2.64 µM	0.211 µM	1.34 µM	0.24 µM	2.74 µM	–	–	0.144 µM	1.26 µM	0.199 µM	2.82 µM	0.411 µM	13.9 µM	0.206 µM	1.05 µM	1.69 µM	13.5 µM
O=C(c1ccccc1)c1nc2ccc(C(F)(F)F)cc2[n+]([O-])c1C(F)(F)F	31.5 µM	> 100 µM	26.8 µM	> 100 µM	71.9 µM	> 100 µM	71.5 µM	> 100 µM	30.4 µM	> 100 µM	–	–	27 µM	> 100 µM	39.9 µM	> 100 µM	38.7 µM	> 100 µM	52.6 µM	> 100 µM
O=C(CCCCCCSc1nc(-c2ccc(Cl)cc2)cc(-c2ccc(Cl)cc2)n1)NO	1.92 µM	36.2 µM	1.55 µM	8.04 µM	1.46 µM	4.9 µM	1.97 µM	20.4 µM	1.34 µM	4.76 µM	–	–	1.25 µM	> 50 µM	1.7 µM	7.49 µM	1.43 µM	8.1 µM	3.23 µM	> 50 µM
O=C1c2c(O)cc(O)cc2OC(c2ccc(O)cc2O)C1O (stereo not drawn)	–	> 100 µM	> 100 µM	> 100 µM	–	> 100 µM	> 100 µM	> 100 µM	–	> 100 µM	–	–	> 100 µM	> 100 µM	> 100 µM	> 100 µM	> 100 µM	> 100 µM	–	> 100 µM
Cc1c(NC(=O)OC[C@@H]2COCCN2)cn2ncnc(Nc3ccc4c(cnn4Cc4cccc(F)c4)c3)c12	> 10 µM and 8.52 µM	> 10 µM and 22.7 µM	4.75 µM and 5.07 µM	> 10 µM and 16.9 µM	9.5 µM and 4.26 µM	> 10 µM and 20.6 µM	> 10 µM and 9.04 µM	> 10 µM and 23.2 µM	> 10 µM and 1.36 µM	> 10 µM and 15.5 µM	–	–	> 10 µM and 11 µM	> 10 µM and 34.3 µM	> 10 µM and 7.18 µM	> 10 µM and 24.5 µM	> 10 µM and 8.88 µM	> 10 µM and 28.7 µM	2.32 µM and 5.49 µM	> 10 µM and 52.2 µM
COc1cccc2[nH]c(-c3ccccn3)nc12	–	> 100 µM	–	> 100 µM	–	> 100 µM	–	> 100 µM	–	> 100 µM	–	> 100 µM	–	–	–	> 100 µM	–	> 100 µM	–	> 100 µM
C=C1C(=O)O[C@H]2[C@H]1CC/C(COC(=O)c1ccc(C#N)cc1)=C\CC[C@@]1(C)O[C@@H]21	1.44 µM	3.15 µM	1.63 µM	3.81 µM	1.5 µM	2.83 µM	3.9 µM	15.1 µM	–	–	0.548 µM	> 100 µM	0.906 µM	6.47 µM	2.2 µM	5.09 µM	2.75 µM	11.2 µM	3.04 µM	15.9 µM
COc1ccc(-c2ccc(/C=N/n3c(C)nn(CN4CCN(C)CC4)c3=S)o2)c([N+](=O)[O-])c1	> 100 µM	> 100 µM	52.5 µM	> 100 µM	> 100 µM	> 100 µM	58.3 µM	> 100 µM	24.4 µM	> 100 µM	–	–	22 µM	61.4 µM	28.2 µM	> 100 µM	–	–	–	–
CSc1ccc(/C=C/c2ccnc3ccccc23)cc1	–	–	–	27.5 µM	–	32.7 µM	–	34 µM	–	–	–	32.9 µM	–	78.3 µM	–	66 µM	–	28.8 µM	–	43.4 µM
Nc1nnc(Cn2c(-c3ccccc3)nc3ccc(Br)cc3c2=O)s1	58.3 µM	> 100 µM	64.6 µM	> 100 µM	85.4 µM	> 100 µM	> 100 µM	> 100 µM	25.1 µM	> 100 µM	–	–	16.3 µM	67.6 µM	> 100 µM	> 100 µM	1.25 µM	41 µM	41.4 µM	> 100 µM
COc1ccc(Cn2cc3c(c2-c2cc(OC)c(OC)c(OC)c2)CCc2cnoc2-3)cc1[N+](=O)[O-]	7.9 µM	> 100 µM	0.73 µM	3.28 µM	1.91 µM	> 21.3 µM	1.87 µM	> 100 µM	0.747 µM	> 60.4 µM	–	–	0.788 µM	> 100 µM	3.79 µM	> 100 µM	3.35 µM	> 100 µM	1.13 µM	–
CCC(C(=O)[O-])C(=O)[O-].CCC(C(=O)[O-])C(=O)[O-].N.N.NCCCCCCN.[Pt+4].[Pt+4]	–	–	0.883 µM	1.66 µM	–	–	10.3 µM	21.9 µM	2.25 µM	4.97 µM	6.11 µM	35.4 µM	1.1 µM	2.87 µM	11.2 µM	24 µM	11.5 µM	28.1 µM	–	–
O=C(NCCCCCCCCNC(=O)c1cccc2ccccc12)c1cccc2ccccc12	–	> 100 µM	–	> 100 µM	–	> 100 µM	–	> 59.5 µM	–	52.8 µM	–	> 100 µM	–	> 100 µM	–	> 81.8 µM	–	79.5 µM	–	–
CC(=O)OCC1O[C@@H]([S-])C(OC(C)=O)[C@H](OC(C)=O)[C@@H]1OC(C)=O.[Au+].c1ccc(CN2[CH-]N(Cc3ccccc3)C(c3ccccc3)=C2c2ccccc2)cc1	1.86 µM	3.54 µM	1.99 µM	3.75 µM	1.89 µM	3.54 µM	–	–	2 µM	3.95 µM	0.663 µM	7.8 µM	1.99 µM	5.51 µM	–	–	2.61 µM	7.38 µM	2.51 µM	6.91 µM
CC1=C(c2cc(C(=O)Nc3cccc(C(F)(F)F)c3)ncn2)Sc2ccccc2N1	–	–	–	> 100 µM	–	–	–	> 100 µM	–	> 100 µM	–	> 100 µM	–	> 100 µM	–	> 100 µM	–	> 100 µM	–	–
O=C([O-])c1ccc(C(=O)[O-])cc1.O=C([O-])c1ccc(C(=O)[O-])cc1.[Mo+2].[Mo+2]	–	–	> 100 µM	> 100 µM	–	–	> 100 µM	> 100 µM	> 100 µM	> 100 µM	> 100 µM	> 100 µM	> 100 µM	> 100 µM	> 100 µM	> 100 µM	> 100 µM	> 100 µM	–	–
Cc1nc(Nc2ccc([N+](=O)[O-])cc2)sc1C(/C=C/c1ccc(N(C)C)cc1)=N/NC(=O)c1ccccc1	–	–	–	> 100 µM	–	–	–	> 100 µM	–	> 100 µM	–	> 100 µM	–	> 100 µM	–	> 100 µM	–	> 100 µM	–	–

— PubChem BioAssay (NCI)
